According to patent publication US20030032580A1, “Use of agonists or antagonists of the 5-HT7 receptor to treat disorders of the bladder” (Synaptic Pharmaceutical Corporation, priority 1999, published 2003):

Key:
[1] = tested on: rat urinary bladder strips; experiment: Isolated rat urinary bladder strips: agonist-evoked increase of electrically evoked, nerve-mediated contractions; assay type: cell-based
Source text: 5-HT receptors in the rat urinary bladder which, when activated by serotonin agonists, cause increases in the magnitude of nerve-mediated contractions, were identified and characterized pharmacologically using isolated strips of rat bladder.
Urinary bladders were isolated from female CD rats (Charles Rivers, 250-300 g). The bladder base (lower third) was removed and the detrusor region was opened into a flat sheet by cutting from the basal opening to the apex. This was cut into quadrants, each of which was attached on its lateral edges by two tissue clips and suspended in a 5 ml tissue bath containing Krebs' solution (pH 7.4 37° C.) of the following composition (mM): NaCl (118), KCl (4.9), NaHCO3 (25), MgCl2 (1.2), NaHPO4 (1.0), CaCl2 (2.5), glucose (11) and aerated continuously with 95% O2/5% CO2. Except in initial experiments, prazosin (0.1 μM), idazoxan (0.3 μM), and indomethacin (10 μM) were included routinely in the buffer to block α1- and α2-adrenoceptors and to prevent the formation of prostaglandins, respectively. After allowing 30 min for equilibration, bladder strips were placed under 1.0 g resting tension, readjusted 6 times over the next 30 min. For most experiments contractile responses were evoked by transmural electrical impulses delivered by Grass S-88 (Grass Instruments, City, Mass.) stimulators (single pulses, 0.1 Hz, 1 ms pulse width, 90 V) through a pair of stainless steel electrodes. Contractions were measured using isometric force transducers (Radnotti Instruments, Monrovia, Calif.) and recorded using MacLab software (AD Instruments, Milford, Mass.).
Bladder strips, in Krebs' solution containing antagonist or vehicle, were stimulated at supramaximal voltage until contractions of consistent magnitude were obtained (ca. 30 min). During this period the Krebs' solution was exchanged at 15 min intervals. Cumulative concentration-effect curves were then constructed by administering 5-carboxamidotryptamine (5-CT) or other agonists in 0.5 log M increments. Responses are expressed as a percent of control, and represent agonist-evoked increases in the magnitude of the electrically evoked contractions relative to that in the absence of agonist (“control”, taken as 100%). […] Therefore, only a single agonist concentration-effect curve was constructed in each tissue.
Concentration-effect curves were fitted (Kaleidagraph, Synergy Software, PCS Inc., Reading PA) to 1-site or 2-site models of agonism as represented by the following equations:
(1-site): Effect=Emax[A]^n/[A]^n+EC50^n;
(2-site): Effect=(Emax^a[A]/[A]+EC50^a+(Emax^b[A]/[A]+EC50^b),
where Emax represents the maximum effect of the agonist, [A] is the agonist molar concentration, EC50 is the concentration of agonist eliciting half its maximum effect, n is the slope factor, and the italicized superscripts (a and b) denote values for the first and second phase of the biphasic curve. Antagonist pKB values were determined using the formula described by Furchgott (1972): pKB=log (agonist concentration ratio −1/antagonist concentration [M]. In some instances, pKB values were determined according to the method of Arunlakshana and Schild (1959), in which the slope of the Schild plot was constrained to unity. Concentration ratios for Schild analyses were calculated from mean EC50 values for the agonist in the absence and presence of the antagonist in experiments from n different animals.

[2] = molecular target: T1, 5-HT2B receptor (second phase of the concentration-effect curve to 5-CT in the rat bladder) (Rattus norvegicus, UniProt P30994); experiment: Electrically stimulated rat bladder strips: second (low potency) phase of the concentration-effect curve to 5-CT; assay type: cell-based
T1 construct: from tissue; host or cells: rat urinary bladder detrusor strips

[3] = molecular target: T2, 5-HT7 receptor (first phase of the concentration-effect curve to 5-CT in the rat bladder) (Rattus norvegicus, UniProt P32305); experiment: Electrically stimulated rat bladder strips: first (high potency) phase of the concentration-effect curve to 5-CT; assay type: cell-based
T2 construct: from tissue; host or cells: rat urinary bladder detrusor strips

[4] = tested on: rat bladder strips (postjunctional response to α,β-methylene-ATP); assay type: cell-based; settings: 0.1 and 10 μM; 5 minute incubation; tetrodotoxin 0.1 μM; α,β-methylene-ATP 3 μM
human 5-HT7 receptor = molecular target: T3, human 5-HT7 receptor (Homo sapiens, UniProt P34969); experiment: Radioligand binding at cloned 5-HT7 receptor, this study ([3H]serotonin competition); settings: reference: this study, read-out: pK1 (converted)
T3 construct: host or cells: LM(tk-) mouse fibroblasts, clone L-5HT-4B
Procedure: The binding of a test compound to a receptor of interest was generally evaluated by competitive binding assays using membrane preparations derived from cells which expressed the receptor. First, conditions were determined which allowed measurement of the specific binding of a compound known to bind to the receptor. Then, the binding of the known compound to the receptor in membrane preparations was evaluated in the presence of several different concentrations of the test compound.
Human Serotonin Receptors. 5-HT1Dα, 5-HT1Dβ, 5-HT1E, 5-HT1F, and 5-HT7 Receptors: The cell lysates of LM(tk-) clonal cell line stably transfected with the genes encoding each of these 5-HT receptor-subtypes were prepared as described above. The cell line for the 5-HT1Dα receptor, designated as Ltk-8-30-84, was deposited on Apr. 17, 1990, and accorded ATCC Accession No. CRL 10421. The cell for the 5-HT1Dβ receptor, designated as Ltk-11, was deposited on Apr. 17, 1990, and accorded ATCC Accession No. CRL 10422. The cell line for the […] receptor, designated 5-HT1E-7, was deposited on Nov. 6, 1991, and accorded ATCC Accession No. CRL 10913. The cell line for the 5-HT1F receptor, designated L-5-HT1F, was deposited on Dec. 27, 1991, and accorded ATCC Accession No. ATCC 10957. […] Nonspecific binding was determined in the presence of 10 μM serotonin. […]

[5] = molecular target: cloned rat 5-HT2B receptor (Rattus norvegicus, UniProt P30994); settings: cited from earlier work
5-HT1E = 5-HT1E (Homo sapiens, UniProt P28566); settings: Adham et al., 1993; cited from earlier work
5-HT1E, sequence (P28566 whole entry): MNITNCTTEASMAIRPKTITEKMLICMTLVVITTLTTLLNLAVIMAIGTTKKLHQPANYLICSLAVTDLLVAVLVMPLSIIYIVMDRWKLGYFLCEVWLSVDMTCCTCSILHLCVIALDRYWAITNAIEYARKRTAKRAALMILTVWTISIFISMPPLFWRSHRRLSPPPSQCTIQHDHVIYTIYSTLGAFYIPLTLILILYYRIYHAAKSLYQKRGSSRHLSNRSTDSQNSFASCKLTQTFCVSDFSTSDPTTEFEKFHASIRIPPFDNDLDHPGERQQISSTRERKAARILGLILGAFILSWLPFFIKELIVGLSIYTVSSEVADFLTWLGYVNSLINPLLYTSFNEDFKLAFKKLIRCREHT

T1 sequence (P30994 whole entry): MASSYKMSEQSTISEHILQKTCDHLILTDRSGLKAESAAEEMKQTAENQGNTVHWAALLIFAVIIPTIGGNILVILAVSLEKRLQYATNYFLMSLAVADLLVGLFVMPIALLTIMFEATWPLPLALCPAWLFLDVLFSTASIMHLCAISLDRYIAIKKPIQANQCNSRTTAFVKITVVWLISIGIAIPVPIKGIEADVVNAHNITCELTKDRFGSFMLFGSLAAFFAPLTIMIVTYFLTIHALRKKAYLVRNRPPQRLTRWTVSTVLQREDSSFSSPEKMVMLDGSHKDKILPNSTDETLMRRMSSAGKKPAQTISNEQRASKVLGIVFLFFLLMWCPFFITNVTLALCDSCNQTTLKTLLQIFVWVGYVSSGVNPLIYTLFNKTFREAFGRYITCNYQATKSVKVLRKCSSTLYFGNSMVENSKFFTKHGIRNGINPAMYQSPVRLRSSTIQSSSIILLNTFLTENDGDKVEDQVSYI
T2 sequence (P32305 whole entry): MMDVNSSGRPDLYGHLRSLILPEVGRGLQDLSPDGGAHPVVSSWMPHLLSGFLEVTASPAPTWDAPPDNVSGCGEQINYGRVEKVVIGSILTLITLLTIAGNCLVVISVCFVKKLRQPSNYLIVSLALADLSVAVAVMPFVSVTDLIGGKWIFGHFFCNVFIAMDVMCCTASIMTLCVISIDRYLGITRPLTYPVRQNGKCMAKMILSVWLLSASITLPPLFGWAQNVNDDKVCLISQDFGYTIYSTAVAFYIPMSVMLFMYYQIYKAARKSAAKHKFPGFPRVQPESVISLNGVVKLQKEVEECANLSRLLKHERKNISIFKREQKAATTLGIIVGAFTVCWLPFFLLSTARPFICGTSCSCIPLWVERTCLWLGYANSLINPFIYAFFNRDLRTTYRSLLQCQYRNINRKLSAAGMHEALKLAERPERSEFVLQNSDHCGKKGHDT
cloned rat 5-HT2B receptor, sequence (P30994 whole entry): as the sequence (P30994 whole entry) above
T3 sequence (P34969 1-445 isoform P34969-2): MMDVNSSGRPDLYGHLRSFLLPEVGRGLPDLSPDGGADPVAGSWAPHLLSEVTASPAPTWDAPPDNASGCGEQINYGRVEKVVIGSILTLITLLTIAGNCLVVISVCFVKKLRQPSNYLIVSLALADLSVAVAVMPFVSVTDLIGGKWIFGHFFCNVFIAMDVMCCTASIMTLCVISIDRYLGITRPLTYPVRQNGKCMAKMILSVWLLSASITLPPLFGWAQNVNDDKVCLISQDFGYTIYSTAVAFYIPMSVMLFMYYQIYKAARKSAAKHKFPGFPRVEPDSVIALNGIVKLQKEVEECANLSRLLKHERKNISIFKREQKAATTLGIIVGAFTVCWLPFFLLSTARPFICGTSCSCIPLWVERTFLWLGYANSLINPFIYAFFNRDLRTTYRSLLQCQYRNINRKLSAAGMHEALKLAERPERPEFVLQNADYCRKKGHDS

SMILES | difference in EC50 values between first and second phase [1] | effect on the magnitude of electrically evoked contractions ([1]; agonist alone, electrically stimulated rat bladder strips) | EC50 [2] | EC50 [3] | effect on the magnitude of a subsequent contraction to α,β-methylene-ATP [4] | second-phase affinity greater than affinity for 5-HT1B, 5-HT1E, 5-HT2A and 5-HT2C subtypes ([2]; bladder pKB versus published values) | Kb ([2]; inhibition of the second phase of the concentration-effect curve to 5-CT in the rat bladder, read-out: pKB (converted)) | first-phase affinity lower than affinity for the 5-HT2B receptor subtype ([3]; bladder pKB versus published value) | Ki (human 5-HT7 receptor) | pKB, 5-HT2B ([5]; Wainscott et al., 1993) | pK1 ([5]; cloned rat 5-HT2B receptor, reference 1 (Wainscott et al., 1993)) | pKB, 5-HT1E (5-HT1E)
NCCc1c[nH]c2ccc(C(N)=O)cc12 [5-CT, 5-carboxamidotryptamine] | 100 fold | mimicked | 158 nM | 1.58 nM | failed to significantly modify | – | – | – | – | – | – | –
COC(=O)[C@H]1[C@H]2C[C@H]3c4[nH]c5ccccc5c4CCN3C[C@H]2CC[C@@H]1O [rauwolscine] | – | – | – | – | – | at least 10 fold | 15.8 nM | more than 10 fold | 2510 nM | 7.5 | 7.5-7.6 | 5.5
